Source: patent publication US12467928B2, “N-terminal modifier agents and binders for treating and analyzing peptides” (Encodia, Inc., priority 2023, dated 2025)
Peptide text beside a SMILES is read from it. * marks the point of attachment. Benzoyl(4-SO2NH2) = NS(=O)(=O)c1ccc(C(=O)*)cc1

Columns and labels:
[1] = target: wild-type hCAII protein (Homo sapiens, UniProt P00918); assay: colorimetric IC50 assay of NTMs and NTM-AAEIR peptides; assay type: biochemical; conditions: for Fold Enhancement (NTM IC50) / Fold Enhancement (NTM-AAEIR IC50): relative to NTM M64; for Fold Enhancement (NTM-AAEIR IC50): NTM on AAEIR
Protocol: The colorimetric assay used 300 nM of wild-type carbonic anhydrase incubated in 45 μL of 50 mM MOPS (pH 7.5), 33 mM Na2SO4, and 1 mM EDTA aliquoted into a 96-well, clear, flat-bottom plate. To each column of the plate, a 1/10 dilution series from 1 mM to 0.1 nM of each NTM was added and incubated at 25° C. for 10 minutes to reach binding equilibrium. […] The initial rate of hydrolysis was observed over the first 60 seconds. The slopes versus the concentration of NTM were put into a non-linear regression equation to determine the IC50 of the NTM to the carbonic anhydrase.

[2] = target: human carbonic anhydrase II (hCAII) (Homo sapiens, UniProt P00918); assay: hCAII functional assay (pNP-OAc hydrolysis) with SABA-modified peptides; assay type: biochemical
Protocol: A functional assay for hCAII enzyme was set up. Carbonic anhydrase catalyzes the hydrolysis of 4-nitrophenyl acetate (4-NPA) to nitrophenol, which can be monitored by absorbance at 400 nm. The enzymatic carbonic anhydrase assay generally includes 0.2-1.0 μM enzyme and 10-500 μM 4-NPA in 20-200 μL in assay buffer. […] Metal chelating agents (EDTA or EGTA), salt (NaCl, sulfate), detergent (Tween or Triton), and organic additives (acetonitrile, DMSO) may be employed to facilitate enzyme stability and reagent solubility. For the assay, 1 μM human carbonic anhydrase II, 50 mM MOPS (pH 7.6), 33 mM disodium sulfate, and 1 mM EDTA. To generate NTM-modified peptides, azide-derivatized peptides (via azide-PEG-amine and carbodiimide coupling to C-terminus of peptide) were conjugated to DBCO-coupled beads. […] To evaluate P1 dependence of the binding reaction, multiple P1 residues has been tested.

[3] = target: biotinylated peptides M64-P1-P2-ΔK-(PEG9)(PEG9)-K(Biotin); assay: bio-layer interferometry (BLI) of engineered binders; assay type: binding; conditions: M64 peptide, 22° C.
Protocol: Bio-layer interferometry (BLI) is an optical analytical and label-free method to directly measure kinetics between two biomolecules. In this technology, one biomolecule is immobilized on a surface in the form of a small tip, this tip is then dipped in a microplate containing the second biomolecule of interest. White light is directed down the tip to the tip surface where the binding is measured as a shift in wavelength that is caused as a result of the interference between incident and reflected light. More specifically, there are two surfaces at the tip, a reference layer and the experiment layer, the latter is where the biomolecules immobilize and bind. As the distance between these two layers increases due to biomolecules binding and immobilizing, the shift between incident and reflected wavelengths increases as caused by the light waves interfering at the two layers. Therefore, the size and the number of biomolecules that bind onto the surface is proportional to the shift measured. This shift is plotted against time to give a sensogram from which kon, koff and ultimately KD can be calculated.
All binding experiments were carried out on an 8-channel Gator Prime (Gator Bio) instrument. To measure the affinity of each binder-peptide pair, biotinylated peptides were immobilized on Streptavidin coated biosensor tips (Gator Bio), which were dipped in six binder concentrations and two controls. All binding assays were performed at 22° C. in 96 well polypropylene plates (Gator Bio) and carried out in triplicates with a well volume of 200 uL. Streptavidin coated biosensors were hydrated in the baseline buffer for 10 mins before each assay. All binding experiments used biotinylated peptides with the following sequence construct, M64-P1-P2-ΔK-(PEG9)(PEG9)-K(Biotin) and all peptides were diluted in the baseline buffer. Binders having sequences set forth in SEQ ID NO: 75-SEQ ID NO: 82 were tested. The binders originated from three different metalloenzyme scaffolds and were engineered according to the methods disclosed in Examples 4-6. […] All binders were serially diluted using the baseline buffer either by 2- or 3-fold. Baseline buffer consisted of 50 mM MOPS pH 7.5, 33 mM NaSO4, 1 mM EDTA and 0.1% Tween-20. The following protocol was used for each binding assay under shaker speed of 1000 rpm, which generated the best quality binding with minimal sensor to sensor variation and baseline drift (Table 14).
Between each binding assay, if biosensors were used more than once, the following protocol was used to regenerate the biosensor for subsequent binding assays (Table 15). Regeneration buffer consisted of […] and 10 mM Glycine pH 2.0.
Analysis of binding curves. […] Binding curves were aligned to the association step and subtracted using the reference curve. Each set of processed curves were then fit locally and inspected. The residual plot, R2 and Chi2 were examined to be <0.1 nm, […] and <3 nm respectively. […] Next, the qualifying curves were filled globally and the kinetic parameters kobs, kon, koff and KD were calculated along with their errors. The errors were inspected to be less than […] of its calculated value. Finally, the theoretical shift at equilibrium from the qualifying curves were filled on a steady state plot, and the KD and Rmax (theoretical maximum binding capacity in nm) were calculated from that curve. The kinetic parameters of exemplary generated binders (having sequences set forth in SEQ ID NO: 75-SEQ ID NO: 82) with their respective targets (indicated as P1 residue of immobilized peptides) are shown in Table 16.

[4] = 1 μM hCAII, 500 μM pNP-OAc, 10 minutes at 37° C., pNP release over 180 s

Molecule	Fold Enhancement (NTM IC50) [1]	Fold Enhancement (NTM-AAEIR IC50) [1]	further results
Nc1cc(S(N)(=O)=O)ccc1C(=O)O [2-NH2, 2-Amino-4-sulfamoylbenzoic acid]	0.3		
C[C@H](NC(=O)[C@H](C)NC(=O)[C@H](Cc1ccccc1)NC(=O)c1ccc(S(N)(=O)=O)cc1)C(=O)N[C@@H](C)C(=O)N[C@@H](CCC(=O)O)C(N)=O [(SAB)FAAAE] ({Benzoyl(4-SO2NH2)}-FAAAE-NH2)			IC50 [2, 4]: 45 nM; IC50 ([2]; SABA-P1-P2 groups): 45 nM
NS(=O)(=O)c1ccc(C(=O)O)c(Cl)c1 [M76, 2-Chloro-4-sulfamoylbenzoic acid]	2.6	1.9	
NS(=O)(=O)c1ccc(C(=O)O)nc1 [M66]	0.5		IC50 ([1]; free NTM, 300 nM wild-type carbonic anhydrase, 1 mM pNPA, 25° C.): 992 nM
C[C@H](NC(=O)c1ccc(S(N)(=O)=O)cc1)C(=O)N[C@@H](Cc1ccccc1)C(=O)N[C@@H](C)C(=O)N[C@@H](C)C(=O)N[C@@H](CCC(=O)O)C(N)=O [(SAB)AFAAE] ({Benzoyl(4-SO2NH2)}-AFAAE-NH2)			IC50 [2, 4]: 183 nM; IC50 ([2]; SABA-P1-P2 groups): 183 nM
Cc1cc(S(N)(=O)=O)ccc1C(=O)O [M74, 2-methyl-4 sulfamoylbenzoic acid]	0.2		
NS(=O)(=O)c1ccc(C(=O)O)c(F)c1 [M75, 2-Fluoro-4-sulfamoylbenzoic acid]	2.1	2.2	
NS(=O)(=O)c1ccc(C(=O)O)c([N+](=O)[O-])c1 [M67, 2Nitro-4-sulfamoylbenzoic acid]	3.8	2.0	
COc1cc(S(N)(=O)=O)ccc1C(=O)O [M73, 2-Methoxy-4-sulfarnoylbenzoic acid]	0.0		
C[C@H](NC(=O)c1ccc(S(N)(=O)=O)cc1)C(=O)N[C@@H](C)C(=O)N[C@@H](C)C(=O)N[C@@H](C)C(=O)N[C@@H](CCC(=O)O)C(N)=O [(SAB)AAAAE] ({Benzoyl(4-SO2NH2)}-AAAAE-NH2)			IC50 ([2]; SABA-P1-P2 groups): 48 nM
NS(=O)(=O)c1ccc(C(=O)O)cc1F [M88, 3-Fluoro-4-sulfamoylbenzoic acid]	4.3	1.6	
NS(=O)(=O)c1ccc(C(=O)O)cn1 [M65, 6-Sulfamoylpyridine-3-carboxylic acid]	2.2	0.3	
75 (protein, Synthetic binder, S279_0004) EWGYASHNGPDHWHELFPNAKGENQSPIELHTKDIRHDPSLQPWSVSYDGGSAKTILNNGKTLGVVFDDTYDRSMLRGGPLPGPYRLREFHLHWGSSDDHGSEHTVDGVKYAAELHLLHWNPKYNTFKEALKQRDGLAVIGIFLKIGHENGEFQIFLDALDKIKTKGKEAPFTKFDPSSLFPASRDYWTYQGSMTIPPLMEAVVWLLLKEPMTVSSDQMAKLRSLLSSAENEPPVPLVSNWRPPQPINNRVVRASFK			Kd ([3]; P1 = T): 488 nM; koff ([3]; P1 = T): 0.0111 s⁻¹; kon ([3]; P1 = T): 23300 M⁻¹ s⁻¹; Kd ([3]; P1 = V): 20 nM; koff ([3]; P1 = V): 0.000473 s⁻¹; kon ([3]; P1 = V): 23700 M⁻¹ s⁻¹
